Results published in US7205382B2, “Peptides, the production and use thereof for binding immunoglobulins” (Fresenius Medical Care Affina GmbH, priority 2000, dated 2007).
Bridge positions count the residues as written; N and C are the ends. Square brackets hold non-standard residues; d marks the D form. Ends that are not written are not given here. cellulose = not defined here; βAla = NCCC(=O)O

Legend:
Assay type in all cases: binding
Set-up in all cases: key: No binding of immunoglobulin for the defined peptide variant, detection negative: 0; Binding of immunoglobulin for the defined peptide variant, detection positive: +
serum albumin = assay: Cellulose-immobilized 13-mer peptide variants incubated with serum albumin (negative control), anti-human IgG-AP detection; details: blocking buffer without addition, 3 h room temperature
Protocol: (§1) Peptides consisting of 13 amino acids were synthesized by solid phase synthesis (Houghten, 1985) on a cellulose matrix with (βA)(βA) as a spacer group.
(§2) The immobilized peptides were tested for their immunoglobulin binding capability by incubation with human IgG-Fc in a buffered solution and by incubation with human plasma.
(§3) Thus, the peptide variants immobilized on solid phases were washed with T-TBS buffer (136 mM NaCl, 1.6 mM KCl, 0.05% (v/v) Tween 20, 50 mM Tris-HCl, pH 8.0) and subsequently treated with blocking buffers (5% (w/v) saccharose, 4% (w/v) bovine serum albumin in T-TBS). Incubation of the immobilized peptides with IgG-Fc (1 μg/ml) in blocking buffer and human serum (diluted 1:10,000 in blocking buffer) was effected for 3 h at room temperature. For checking the specificity of the binding, buffered serum albumin solution (blocking buffer) without addition was included as a control. Thereafter, the peptide variants immobilized on the solid phases were washed three more times with T-TBS buffer.
(§4) After incubation with alkaline phosphatase-conjugated anti-human IgG antibody (1.2 μg/ml) in blocking buffer, detection of the immunoglobulin binding was effected by means of NBT (nitroblue tetrazolium chloride)/BCIP (5-bromo-4-chloro-3-indolyl phosphate toluidine salt) as a substrate (200 μl of parent solution (18.75 mg/ml NBT and 9.4 mg/ml BCIP in 67% (v/v) DMSO) in 10 ml developing buffer (100 mM Tris-HCl, 100 mM NaCl, 5 mM MgCl2, pH 9.5)).

[1] = tested on: immunoglobulins in human plasma; assay: Cellulose-immobilized 13-mer peptide variants incubated with human plasma, anti-human IgG-AP detection; details: human plasma as sample, diluted 1:10,000 in blocking buffer, 3 h room temperature
Protocol: as §1, §2, §3, §4

human IgG-Fc = assay: Cellulose-immobilized 13-mer peptide variants incubated with human IgG-Fc, anti-human IgG-AP detection; details: IgG-Fc 1 μg/ml in blocking buffer, 3 h room temperature
Protocol: as §1, §2, §3, §4

Row | Substance | Result for incubation with serum albumin (immunoglobulin binding detection) (serum albumin) | Result for incubation with human plasma (immunoglobulin binding detection) [1] | Result for incubation with human IgG-Fc (immunoglobulin binding detection) (human IgG-Fc)
1 | 05G: cellulose-bound 13-mer variant DCAWGLGELVWCT-(βA)(βA) (disulfide 2-12 (inferred); not fully specified (N-terminus, C-terminus); printed as DCAWGLGELVWCT-(βA)(βA); also: cellulose-bound) | 0 | 0 | 0
2 | 08L: cellulose-bound 13-mer variant DCAWHLGLLVWCT-(βA)(βA) (DCAWHLGLLVWCT-{βAla-βAla-cellulose}; disulfide 2-12 (inferred); not fully specified (N-terminus); printed as DCAWHLGLLVWCT-(βA)(βA); reading uncertain) | 0 | 0 | 0
3 | 03Q: cellulose-bound 13-mer variant DCQWHLGELVWCT-(βA)(βA) (DCQWHLGELVWCT-{βAla-βAla-cellulose}; disulfide 2-12 (inferred); reading uncertain; also: printed as DCQWHLGELVWCT-(βA)(βA)) | 0 | 0 | +
4 | 11D: cellulose-bound 13-mer variant DCAWHLGELVDCT-(βA)(βA) (DCAWHLGELVDCT-{βAla-βAla-cellulose}; disulfide 2-12 (inferred); reading uncertain; also: printed as DCAWHLGELVDCT-(βA)(βA)) | 0 | 0 | 0
5 | 01P: cellulose-bound 13-mer variant PCAWHLGELVWCT-(βA)(βA) (PCAWHLGELVWCT-{βAla-βAla-cellulose}; disulfide 2-12 (inferred); reading uncertain; also: printed as PCAWHLGELVWCT-(βA)(βA)) | 0 | 0 | +
6 | 06E: cellulose-bound 13-mer variant DCAWHEGELVWCT-(βA)(βA) (DCAWHEGELVWCT[βAla][βAla]; disulfide 2-12 (inferred); not fully specified (N-terminus); printed as DCAWHEGELVWCT-(βA)(βA); also: cellulose-bound) | 0 | 0 | +
7 | 03N: cellulose-bound 13-mer variant DCNWHLGELVWCT-(βA)(βA) (DCNWHLGELVWCT-{βAla-βAla-cellulose}; disulfide 2-12 (inferred); reading uncertain; also: printed as DCNWHLGELVWCT-(βA)(βA)) | 0 | 0 | 0
8 | 05R: cellulose-bound 13-mer variant DCAWRLGELVWCT-(βA)(βA) (disulfide 2-12 (inferred); not fully specified (N-terminus, C-terminus); printed as DCAWRLGELVWCT-(βA)(βA); also: cellulose-bound) | 0 | 0 | 0

Continued, values first:

Row | Result for incubation with serum albumin (immunoglobulin binding detection) (serum albumin) | Result for incubation with human plasma (immunoglobulin binding detection) [1] | Result for incubation with human IgG-Fc (immunoglobulin binding detection) (human IgG-Fc) | Substance
9 | 0 | 0 | 0 | 10W: cellulose-bound 13-mer variant DCAWHLGELWWCT-(βA)(βA) (DCAWHLGELWWCT-{βAla-βAla-cellulose}; disulfide 2-12 (inferred); reading uncertain; also: printed as DCAWHLGELWWCT-(βA)(βA))
10 | 0 | 0 | 0 | 01I: cellulose-bound 13-mer variant ICAWHLGELVWCT-(βA)(βA) (ICAWHLGELVWCT-{βAla-βAla-cellulose}; disulfide 2-12 (inferred); reading uncertain; also: printed as ICAWHLGELVWCT-(βA)(βA))
11 | 0 | 0 | 0 | 05T: cellulose-bound 13-mer variant DCAWTLGELVWCT-(βA)(βA) (disulfide 2-12 (inferred); not fully specified (N-terminus, C-terminus); printed as DCAWTLGELVWCT-(βA)(βA); also: cellulose-bound)
12 | 0 | 0 | 0 | 09A: cellulose-bound 13-mer variant DCAWHLGEAVWCT-(βA)(βA) (DCAWHLGEAVWCT-{βAla-βAla-cellulose}; disulfide 2-12 (inferred); reading uncertain; also: printed as DCAWHLGEAVWCT-(βA)(βA))
13 | 0 | 0 | 0 | 05Q: cellulose-bound 13-mer variant DCAWQLGELVWCT-(βA)(βA) (disulfide 2-12 (inferred); not fully specified (N-terminus, C-terminus); printed as DCAWQLGELVWCT-(βA)(βA); also: cellulose-bound)
14 | 0 | 0 | 0 | 05L: cellulose-bound 13-mer variant DCAWLLGELVWCT-(βA)(βA) (disulfide 2-12 (inferred); not fully specified (N-terminus, C-terminus); printed as DCAWLLGELVWCT-(βA)(βA); also: cellulose-bound)
15 | 0 | 0 | 0 | 09T: cellulose-bound 13-mer variant DCAWHLGETVWCT-(βA)(βA) (DCAWHLGETVWCT-{βAla-βAla-cellulose}; disulfide 2-12 (inferred); reading uncertain; also: printed as DCAWHLGETVWCT-(βA)(βA))
16 | 0 | 0 | 0 | 05V: cellulose-bound 13-mer variant DCAWVLGELVWCT-(βA)(βA) (disulfide 2-12 (inferred); not fully specified (N-terminus, C-terminus); printed as DCAWVLGELVWCT-(βA)(βA); also: cellulose-bound)
17 | 0 | 0 | 0 | 11E: cellulose-bound 13-mer variant DCAWHLGELVECT-(βA)(βA) (DCAWHLGELVECT-{βAla-βAla-cellulose}; disulfide 2-12 (inferred); reading uncertain; also: printed as DCAWHLGELVECT-(βA)(βA))
18 | 0 | 0 | 0 | 07Y: cellulose-bound 13-mer variant DCAWHLYELVWCT-(βA)(βA) (DCAWHLYELVWCT-{βAla-βAla-cellulose}; disulfide 2-12 (inferred); not fully specified (N-terminus); printed as DCAWHLYELVWCT-(βA)(βA); reading uncertain)
19 | 0 | + | + | 06H: cellulose-bound 13-mer variant DCAWHHGELVWCT-(βA)(βA) (DCAWHHGELVWCT-{βAla-βAla-cellulose}; disulfide 2-12 (inferred); not fully specified (N-terminus); printed as DCAWHHGELVWCT-(βA)(βA); reading uncertain)
